According to US10927125B2, “Substituted cinnolines as inhibitors of KRAS G12C” (Araxes Pharma LLC, priority 2013, dated 2021):

Molecular target: T1, KRAS G12C 1-169, his-tagged protein, GDP-loaded (Homo sapiens, UniProt P01116, G12C)
T1 construct: KRAS G12C 1-169, his-tagged protein, GDP-loaded
Assay: Biochemical assay: covalent binding of compounds to KRAS G12C, analysed by mass spectrometry
Conditions: binding measured at 30 min (compounds 247-375)
Procedure: Compounds were tested for activity as follows:
Compounds were diluted to 50× final test concentration in DMSO in 96-well storage plates. […] Reactions were mixed carefully and thoroughly by pipetting up/down with a 200 μl multi-channel pipettor. The plate was sealed well with aluminum plate seal, and stored in drawer at room temperature for 30 min, 2 hour or 24 hrs. 51 μl of 2% formic acid (Fisher cat # A117) in DI H2O was then added to each well followed by mixing with a pipette. The plate was then resealed with aluminum seal and stored on dry ice until analyzed as described below.
The above described assays were analyzed by mass spectrometry according to the following procedure:
The MS instrument is set to positive polarity, 2 GHz resolution, and low mass (1700) mode and allowed to equilibrate for 30 minutes. The instrument is then calibrated, switched to acquisition mode and the appropriate method loaded.
After another 30 minute equilibration time, a blank batch (i.e., buffer) is run to ensure equipment is operating properly. The samples are thawed at 37° C. for 10 minutes, briefly centrifuged, and transfer to the bench top. Wells A1 and H12 are spiked with 1 uL 500 uM internal standard peptide, and the plates centrifuged at 2000×g for 5 minutes. The method is then run and masses of each individual well recorded.
The masses (for which integration data is desired) for each well are pasted into the platemap and exported from the analysis. Masses for the internal standards are exported as well. The data at 50 ppm is extracted for the +19 charge state, and identity of well A1 is assigned using the internal standard spike and integrated. Peak data is exported as a TOF list and the above steps are repeated individually, for the +20, 21, 22, 23, 24, and 25 charge states.

T1 sequence (P01116 1-169 isoform P01116-2 G12C): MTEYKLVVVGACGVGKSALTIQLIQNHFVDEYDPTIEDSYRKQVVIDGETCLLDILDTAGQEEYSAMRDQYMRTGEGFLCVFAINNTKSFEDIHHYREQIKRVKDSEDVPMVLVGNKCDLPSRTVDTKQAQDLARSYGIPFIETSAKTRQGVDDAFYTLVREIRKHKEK

In the case of `C=CC(=O)N1CCN(c2ncnc3c(F)c(-c4c(O)cccc4F)c(Cl)cc23)CC1` [Compound 353, (S)-1-(4-(6-chloro-8-fluoro-7-(2-fluoro-6-hydroxyphenyl)quinazolin-4-yl)piperazin-1-yl)prop-2-en-1-one], the Binding % is reported as “++++ (++++ indicates binding activity greater than 75%)”.

For `C=CC(=O)N1CCN(c2nc(NCCN(C)C)nc3c(F)c(-c4cc(O)cc5ccccc45)c(Cl)cc23)CC1` [Compound 355, 1-(4-(6-chloro-2-(2-(dimethylamino)ethylamino)-8-fluoro-7-(3-hydroxynaphthalen-1-yl)quinazolin-4-yl)piperazin-1-yl)prop-2-en-1-one], the Binding % was “++++ (++++ indicates binding activity greater than 75%)”.
